# Test results: publication PMC10394516, “The pharmacokinetic profile of brensocatib and its effect on pharmacodynamic biomarkers including NE, PR3, and CatG in various rodent species” (Frontiers in Pharmacology, 2023)
# Assays:
# NE [1] = assay: Bone marrow NE activity after repeated dosing, BALB/c mice; format: in vivo; conditions: for Reduction of NE activity vs vehicle / Change From Vehicle Control (%) NE: 7 days
# Protocol: (§1) Briefly, animals were weighed and randomized into different treatment groups. In total, three different dosing levels of brensocatib were tested in each species and strain; each QD dosing level was equivalent to 1.5-times the matching daily BID dose. For BID dosing, the second daily dose was administered 8-h post the morning dose. C57BL/6 mice were dosed either BID or QD for 7 consecutive days at 0/0, 0.5/0.75, 2/3, and 20/30 mg/kg/day (BID/QD). BALB/c mice were dosed for 7 consecutive days at 0/0, 0.2/0.3, 2/3, and 20/30 mg/kg/day (BID/QD). SD rats were dosed for 9 consecutive days at 0/0, 0.2/0.3, 2/3, and 20/30 mg/kg/day (BID/QD). Wistar rats were dosed for 7 consecutive days at 0/0, 0.2/0.3, 2/3, and 20/30 mg/kg/day (BID/QD).
# (§2) At the completion of the study, animals were sacrificed 16–24 h post their final dose. The hind limb bones (femurs and tibias) were collected at necropsy for bone marrow analysis of NSP activities by kinetic enzymatic assays ([Basso et al., 2022]). See section Quantification of Bone Marrow NSP Activities for details.
# (§3) For the mice, each animal had the femurs and tibias of both hind limbs harvested. For the rat, the femur and tibia from a single hind limb per animal was harvested. Bones were kept on wet ice until processing for bone marrow collection. In brief, bone cutters were used to cut the epiphysis (knobby ends) off the long bones to expose the bone marrow filled cavity. Each bone cavity was then flushed with 5 mL/bone (mouse) or 10 mL/bone (rat) of ice-cold RPMI media through a […] and collected in a 50-mL conical tube. Cells were spun down at 2,500 × g at 4°C for 5 min and the supernatant was aspirated. After which, bone marrow cells were lysed with 1X red blood cell (RBC) lysis buffer (Abcam, ab204733) to eliminate contaminating RBCs and washed with PBS to remove any residual RBC lysis buffer. The resulting white blood cells (WBC) were subsequently lysed with 1% (v/v) Triton X-100 in PBS. Lysates were added to 96-well plates and stored at −80°C until NSP analyses.
# (§4) Bone marrow lysates prepared as described above were diluted and plated onto 96-well assay plates to quantify NSP activities as described previously ([Basso et al., 2022]). Briefly, peptide substrates for NE (N-Methoxysuccinyl-Ala-Ala-Pro-Val-7-amido-4-methylcoumarin; Sigma; St. Louis, MO; Excitation/Emission at 350/450 nm), PR3 ((7-Methoxycoumarin-4-yl)acetyl-lysyl-(picolinoyl)-Tyr-Asp-Ala-Lys-Gly-Asp-N-3-(2-4-dinitrophenyl)-2-3-diaminopropyonyl-NH2); GenScript; Piscataway, NJ; Excitation/Emission at 340/430 nm), and CatG (N-Succinyl-Ala-Ala-Pro-Phe p nitroanilide; Sigma; Absorbance at 405 nm) were added at a final assay concentration of 100 μM, 40 μM, and 200 μM, respectively, and either fluorescence or absorbance was quantified using a Synergy microplate reader (BioTek; Winooski, VT). The specific NSP activity in each sample was calculated as the total activity minus the activity in the presence of a specific NSP inhibitor (if used), including elastase inhibitor (Abcam) for NE, sivelestat (Abcam) for PR3, and cathepsin G inhibitor I (Cayman Chemical; Ann Arbor, MI) for CatG. NSP concentrations were interpolated based on their activities relative to the standard curves created using active human NE protein (Sigma), active human PR3 protein (Sigma), and active human CatG protein (Sigma), respectively. Due to unavailability of commercial mouse and/or rat NE, PR3, and CatG proteins, the corresponding human proteins were used instead since their catalytic ability is considered to be conserved across species. A portion of each cell lysate sample was retained for protein quantification using a Pierce™ BCA Protein Assay Kit (Thermo Fisher). The NSP activities were normalized for the cell lysate protein concentrations.
# (§5) The Pierce™ BCA Protein Assay Kit was used to measure the total protein of the samples after lysis to allow for subsequent normalization. […]
# NE [2] = assay: Bone marrow NE activity after repeated dosing, Wistar rats; format: in vivo; conditions: for Reduction of NE activity vs vehicle / Change From Vehicle Control (%) NE: 7 days
# Protocol: as §1, §2, §3, §4, §5
# [3] = BID highest dose (20 mg/kg/day)
# [4] = highest dose level 20/30 (BID/QD) mg/kg/day
compound,measurement,setting,value
Cn1c(=O)oc2ccc(-c3ccc(C[C@@H](C#N)NC(=O)[C@@H]4CNCCCO4)cc3)cc21 [brensocatib],Reduction of NE activity vs vehicle,NE [1]; [3],79%
same,Reduction of NE activity vs vehicle,NE [1]; QD highest dose (30 mg/kg/day),46%
same,"Combined BID and QD percentage reduction, NE",NE [1]; [4],62%
same,Change From Vehicle Control (%) NE,"NE [1]; oral BID 0.2 mg/kg/day, 16 h post final dose",+26% (p = 0.4425)
same,Change From Vehicle Control (%) NE,"NE [1]; oral BID 2 mg/kg/day, 16 h post final dose",−23% (p = 0.5256)
same,Change From Vehicle Control (%) NE,"NE [1]; oral BID 20 mg/kg/day, 16 h post final dose",−79% (p = 0.0008)
same,Change From Vehicle Control (%) NE,"NE [1]; oral QD 0.3 mg/kg/day, 24 h post final dose",−3% (p = 0.9990)
same,Change From Vehicle Control (%) NE,"NE [1]; oral QD 3 mg/kg/day, 24 h post final dose",−16% (p = 0.8297)
same,Change From Vehicle Control (%) NE,"NE [1]; oral QD 30 mg/kg/day, 24 h post final dose",−46% (p = 0.0959)
same,Reduction of NE activity vs vehicle,NE [2]; [3],19%
same,Reduction of NE activity vs vehicle,NE [2]; QD highest dose (30 mg/kg/day),19%
same,"Combined BID and QD percent reduction, NE",NE [2]; [4],19%
same,Change From Vehicle Control (%) NE,NE [2]; oral BID 0.2 mg/kg/day,−6% (p = 0.9661)
same,Change From Vehicle Control (%) NE,NE [2]; oral BID 2 mg/kg/day,−6% (p = 0.9676)
same,Change From Vehicle Control (%) NE,NE [2]; oral BID 20 mg/kg/day,−19% (p = 0.4767)
same,Change From Vehicle Control (%) NE,NE [2]; oral QD 0.3 mg/kg/day,+8% (p = 0.9636)
same,Change From Vehicle Control (%) NE,NE [2]; oral QD 3 mg/kg/day,+17% (p = 0.7823)
same,Change From Vehicle Control (%) NE,NE [2]; oral QD 30 mg/kg/day,−19% (p = 0.7283)
